{"source": "paper PMC9440176", "about": "“Novel benzylidene benzofuranone analogues as potential anticancer agents: design, synthesis and in vitro evaluation based on CDK2 inhibition assays” (3 Biotech, 2022)", "key": {"[1]": {"tested_on": "Cyclin A gene expression in HCT 116 cell lines", "experiment": "Semi-quantitative RT-PCR gene expression of Cyclin A", "type": "cell-based, Human", "conditions": "for CyclinA expression profile (in words): HCT 116; for Relative gene expression of Cyclin A: control 1.00", "method": "HCT-116 cells were trypsinized and added to 1 ml TRIzol and vortexed. Samples were then allowed to stand for 5 min at room temperature. 0.2 ml of chloroform per 1 ml of TRIzol was added. The tube was later stoppered and shaken vigorously for 15 s and was allowed to stand at room temperature for 5 min. The resulting mixture was then centrifuged at 10,000×rpm for 15 min at […]. The upper aqueous phase was transferred to another clean tube followed by the addition of 0.5 ml of isopropanol per 1 ml of TRIzol. The contents were mixed gently by inverting the sample 5 times and incubated at room temperature for 5 min. Further, the tubes were centrifuged at 10,000×rpm for the next 10 min at […]. Later, the supernatant was discarded and the RNA pellet was washed by adding 1 ml of 70% ethanol. Further, the contents were mixed gently by inverting the sample for few times. It was again centrifuged for 5 min at 14,000×rpm at […]. In the later step, the supernatant was discarded by inverting the tube on a clean tissue paper. Later, the pellet was dried by incubating in a […] for 5 min at 55 °C. The pellet was then resuspended in 25 µL of DEPC (Diethyl pyro carbonate) treated water.\nA semi-quantitative reverse transcriptase polymerase chain reaction (RT-PCR) was carried out using Techno Prime system to determine the levels of β-actin and CDK-2 and CyclinA mRNA expression. The cDNA was synthesized from 2 µg of RNA using the Verso cDNA synthesis kit (Thermo Fischer Scientific) with oligo dT (deoxy thymine) primer according to the manufacturer’s instructions. The reaction volume was set to 20 μL and the cDNA synthesis was performed at 42 °C for 60 min followed by RT inactivation at 85 °C for 5 min (Murakami [1996]).\nThe PCR mixture (final volume of 20 µL) contains 1 µL of cDNA, 10 µL of Red Taq Master Mix 2× (Ampliqon) and 1 µM of each complementary primer specific for CDK2 and CyclinA and β-actin (internal control) sequence. The samples are denatured at 95 °C for 5 min and amplified using 35 cycles of 95 °C for 30 s then again at 55 °C for 30 s and 72 °C for 1 min for β-actin; the […] annealing was finally set to 56 °C followed by the final elongation at 72 °C for 10 min. […] Ten microliters of the final amplification product are run on a 2% ethidium-stained agarose gel and photographed. Quantification of the results could be accomplished by measuring the optical density of the bands, using the computerized imaging program Image J. The values were normalized to β-actin intensity levels (Bookout and Mangelsdorf [2003])."}, "HCT 116 cell lines": {"tested_on": "HCT 116 cell lines", "experiment": "Cell cycle analysis (PI, FACS)", "type": "cell-based, Human", "conditions": "24 h", "method": "The cell cycle analysis was followed where 1 × 10^6 cells were seeded and cultured for 24 h in a 6-well plate containing 2 ml of the media. Cells were then treated with desired concentrations of the given samples that were prepared in media and further incubated for another 24 h. Cells were then harvested and centrifuged at 2000 rpm for 5 min at room temperature and the supernatant was discarded carefully retaining the cell pellet. Cell pellet was then washed by resuspending in 2 ml of 1XPBS. The washing was repeated another time under the same conditions. Further, the supernatant was discarded retaining the pellet. Cells were then fixed by resuspending in 300 µL of Sheath fluid followed by the addition of 1 ml of chilled 70% ethanol drop by drop gently with continuous shaking and one more mL of the same at once. The cells were then stored at 4 °C overnight. Post fixing, the cells were centrifuged at 2000 rpm for 5 min washed twice with 2 ml of cold 1XPBS and suspended in 450 µL of sheath fluid containing 0.05 mg/ml PI (Propidium iodide), 0.05 mg/ml RNase A and incubated for 15 min in the dark (Kasibhatla et al. [2006]).The percentage of cells in various stages of cell cycle both in the treated as well as un-treated populations was determined using FACS Caliber (BD Biosciences, San Jose, CA)."}, "[2]": {"experiment": "DPPH. free radical scavenging assay", "method": "DPPH. assay was performed using 96-well plate by serial dilution method. The dilution of methanolic stock solution of the test compounds and standard anti-oxidants was carried out to obtain concentration in the range of 3.9–1000 µM. Quercetin and ascorbic acid were used as standards. To a 100 μL of this solution, 100 μL of 200 µM DPPH^. in methanolic solution was added. The experiment was done in triplicate and the plate was then incubated for 30 min in the dark and later the absorbance was measured at 517 nm using Elisa reader. The percentage DPPH^. Scavenging was calculated using the formula, (Control Absorbance–Test Absorbance)*100/(Control Absorbance). The anti-oxidant activity of the test compounds was expressed in terms of concentration required for 50 percentage inhibition (IC50) (Collins [2005])."}, "HCT-116 cells": {"tested_on": "HCT-116 cells", "experiment": "Apoptosis detection by propidium iodide / Annexin V-FITC", "type": "cell-based, Human", "set-up": "FACS analysis of apoptosis detection, Viable cells / FACS analysis of apoptosis detection, Early apoptotic / FACS analysis of apoptosis detection, Late apoptotic / FACS analysis of apoptosis detection, Necrotic: unit not given here", "method": "The day before induction of apoptosis, 1 × 10^6cells per well were plated on a 6-well plate using respective media with 10% FBS and 1% PenStrep, incubated overnight at 37 °C at 5% CO2.The media was replaced with test solutions of different concentrations in the media containing 10% FBS. The treated cells were incubated for 24 h at normal culture conditions. The cells were further harvested and the well contents were completely transferred into the sterile FACS tubes. The cell contents were centrifuged at 2000 rpm for 5 min and the supernatant was discarded. After centrifugation, the cells were washed twice with cold PBS and then resuspended in 1 ml of binding buffer at a concentration of 1× 10^6 cells/ml. […] of the cell suspension (5× 10^5 cells) were then transferred into a fresh FACS tube (Vermes et al. [1995]). Further, cells were gently mixed with […] of propidium iodide and […] of Annexin V before being incubated for 20 minutes at room temperature in the dark. The cells were immediately analyzed by flow cytometer within a duration of an hour."}}}
{"smiles": "COc1ccc(/C=C2\\Oc3c(c(OC)cc(OC)c3C3=CCN(C(C)C)CC3)C2=O)cc1OC", "note": "[NISOA4]", "values": [{"measurement": "Band intensity Of PCR Amplicon Of genes, Cyclin A", "setting": "[1]; 12.5 μM", "result": "16,245.903"}, {"measurement": "Normalized (Cyclin A to β-actin)", "setting": "[1]; 12.5 μM", "result": 0.64}, {"measurement": "CyclinA expression profile (in words)", "setting": "[1]; 12.5 μM", "result": "very little or no reduction"}, {"measurement": "Relative gene expression of Cyclin A", "setting": "[1]; 12.5 μM", "result": 1.00}, {"measurement": "Band intensity Of PCR Amplicon Of genes, Cyclin A", "setting": "[1]; 25 μM", "result": "10,798.368"}, {"measurement": "Normalized (Cyclin A to β-actin)", "setting": "[1]; 25 μM", "result": 0.43}, {"measurement": "CyclinA expression profile (in words)", "setting": "[1]; 25 μM", "result": "clear decrease"}, {"measurement": "Relative gene expression of Cyclin A", "setting": "[1]; 25 μM", "result": 0.67}, {"measurement": "percentage cell population GO/G1 phase", "setting": "HCT 116 cell lines; high concentration (25)", "result": 57.97, "unit": "%"}, {"measurement": "percentage cell population G2/M phase", "setting": "HCT 116 cell lines; low concentration (12.5)", "result": 17.30, "unit": "%"}, {"measurement": "percentage cell population GO/G1 phase", "setting": "HCT 116 cell lines; low concentration (12.5)", "result": 70.84, "unit": "%"}, {"measurement": "percentage cell population S phase", "setting": "HCT 116 cell lines; low concentration (12.5)", "result": 10.61, "unit": "%"}, {"measurement": "IC50", "setting": "[2]", "result": "159 ± 0.45", "unit": "µM"}, {"measurement": "FACS analysis of apoptosis detection, Early apoptotic", "setting": "HCT-116 cells; 12.5 µM", "result": 6.36}, {"measurement": "FACS analysis of apoptosis detection, Late apoptotic", "setting": "HCT-116 cells; 12.5 µM", "result": 28.95}, {"measurement": "FACS analysis of apoptosis detection, Necrotic", "setting": "HCT-116 cells; 12.5 µM", "result": 9.61}, {"measurement": "FACS analysis of apoptosis detection, Viable cells", "setting": "HCT-116 cells; 12.5 µM", "result": 55.08}, {"measurement": "FACS analysis of apoptosis detection, Early apoptotic", "setting": "HCT-116 cells; 25 µM", "result": 0.17}, {"measurement": "FACS analysis of apoptosis detection, Late apoptotic", "setting": "HCT-116 cells; 25 µM", "result": 52.11}, {"measurement": "FACS analysis of apoptosis detection, Necrotic", "setting": "HCT-116 cells; 25 µM", "result": 24.06}, {"measurement": "FACS analysis of apoptosis detection, Viable cells", "setting": "HCT-116 cells; 25 µM", "result": 23.66}]}
